System: tyrosinase from mushroom
Test: Inhibition of mushroom tyrosinase (tyrosine substrate, absorbance at 475 nm after 24 hours)
Assay type: biochemical
Procedure: A buffer solution A containing 50 mM sodium acetate was prepared to yield a 6.8 pH. A tryosine solution was prepared by adding 15 mg of tyrosine to 100 ml of buffer solution A. A tyrosinase solution was prepared by adding 11.5 mg tyrosinase from mushroom (Serva Art. 37618, 72 μ/mg) in 1.2 ml. of buffer solution A. A test tube was charged with 2.7 ml of buffer solution A and 0.4 ml. water to define a blank. Similarly, another test tube was charged with 2.7 ml. of the tyrosine solution, 0.3 ml of water, and 0.1 ml of the tyrosinase solution to define a reference. The samples were stored for 24 hours at a temperature between 23° C. and 25° C. The absorbency of the reference was measured at 475 nm with a spectrophotometer and the absorbancy was set to zero. […] A test tube was charged with 2.7 ml of the tyrosine solution, 0.1 ml. of the tyrosinase solution and 1% mercaptodextran having a molecular weight of about 10,000 from Pharmacia Biotech. The sample was stored for 24 hours at a temperature between 23° C. and 25° C. The absorbancy of was measured at 24 hours. The percent inhibition of the tyrosinase of was calculated as follows: [formula]

[1] = Example 1 / Table 1, whitener 1.0 wt %, 24 hours at 23-25° C., pH 6.8

O=c1oc2cc(O)ccc2s1 [Tioxolone]
Percent inhibition (24 hours) [1]: 0.0%

O=c1cc(CO)occ1O [Kojic Acid]
Percent inhibition (24 hours) [1]: 87.8%
Percent inhibition (24 hours) (Example 2 / Table 2, whitening agent 1.0 wt %, 24 hours): 90.9%

Reference: patent publication US6077503A, “Skin whitener composition containing mercaptodextran” (Amway Corporation, priority 1997, dated 2000)
